Assay results from US12291494B2, “Methods of treating fibrosis” (Nogra Pharma Limited, priority 2012, dated 2025).
“Also recorded” adds a separate entry of the source.

Columns and labels:
α-SMA = assay: Liver gene expression by quantitative Real Time PCR: α-SMA; assay type: in vivo, mice; details: liver mRNA, normalized to β-actin; CCl4 group 65.51 ± 22.24
Description: The effect of administration of compound 34 (GED) and the specific CB2 agonist (JWH-133) was evaluated on the level of gene expression of cytokines (IL-1β, TNF-α) and genes involved in the mechanism of fibrosis by quantitative Real Time PCR.
Total RNA was isolated from livers using Rneasy kit (Macherey Nagel, Hoerdt, France) according to the manufacturer's instructions. RNA quantification was performed using spectrophotometry. After treatment at 37° C. for 30 min with 20-50 units of RNase-free DNase I (Roche Diagnostics Corporation, Indianapolis, IN, USA), oligo-dT primers (Roche Diagnostics Corporation, Indianapolis, USA) were used to synthesize single-stranded cDNA. mRNAs were quantified using SYBR green Master Mix (Applera, Courtaboeuf, France) with murine specific oligonucleotides (see Table 2) in a GeneAmp Abiprism 7000 (Applera, Courtaboeuf, France). In each assay, calibrated and no-template controls were included. Each sample was run in triplicate. SYBR green dye intensity was analyzed using the Abiprism 7000 SDS software (Applera, Courtaboeuf, France). All results were normalized to the unaffected housekeeping gene β-actin.

C57BL/6 mice = assay: DSS chronic colitis (Ex. 7): macroscopic colonic findings; assay type: in vivo
Description: Finally, seven days after the last DSS cycle administration, the animals of each group were sacrificed by cervical dislocation under deep CO2 anaesthesia and undergone to laparotomy. The colon were visualized and rapidly excised. The length of the whole colon-rectum and the weight of the distal 8 cm of colon-rectum were measured.
The macroscopic colonic lesions including dilation, thickness and stenosis were scored by an independent observer, unaware of the mice treatment. Tissue specimens from the colon were dissected and immediately frozen or fixed in fresh 4% formaldehyde (FA)/PBS solution for 3 h at room temperature followed by the standard procedure for paraffin embedding. Paraffin embedded tissues transversally sectioned at 3 μm were subject to Hematoxylin/Eosin staining, to assess the inflammatory degree, and Masson trichrome to better assess connective tissue and fibrosis. The stained sections were then blindly observed under an Olympus BX51 Light Microscope (Olympus, Optical Co. Ltd., Tokyo, Japan) by two pathologists which have performed the histological score evaluating: i. presence of ulcers (0=absent, 1=little ulcers, 2=big ulcers); ii. the inflammatory degree (0=absent 1=mild, 2=moderate and 3=severe); iii. depth of lesions (0=absent, 1=lesions extending in the submucosa, 2=lesions in the muscolarispropria and 3=lesions in the serosa); iv. degree of fibrosis (0=absent 1=mild, 2=moderate and 3=severe). The degree of intestinal inflammation was assessed according to the density and extent of chronic inflammatory infiltrate, loss of goblet cells, and bowel wall thickening. A total microscopic score will be obtained as sum of all scores (maximum score possible=[…]).
At no stage frank rectal bleeding or rectal prolapse were observed. The mice were sacrificed on day 15 and day 30, respectively, and the colon was subjected to macroscopic evaluation by measuring of colon weight (referred to the last 8 cm of the distal large bowel) and colon length and by observing the presence of adhesions, strictures, dilatation, thickness that was scored as 0 if absent; 1 if mild or moderate; and 2 if severe. The total macroscopic score was calculated as sum of all these score.

[1] = test system: main markers of fibrosis (Collagen I-III, α-SMA, TGF-β1, Smad3, CTGF); assay: DSS chronic colitis (Ex. 7): immunohistochemistry of colon; assay type: in vivo, mice; details: DSS+GED vs DSS, listed as GED
Description: Tissue specimens from the colon, dissected and fixed in fresh 4% formaldehyde (FA)/PBS solution for 3 hours at room temperature, were dehydrated in a graded ethanol series, and embedded in low-temperature-fusion paraffin. 3-μm-thick sections were incubated in a solution of methanol and 3% hydrogen peroxide for 45 min.
Samples were incubated overnight with specific antibodies against α-smooth muscle actin (α-SMA, Abcam), collagen types I-III (Abcam), TGF-β1 (Abcam), connective tissue growth factor (CTGF) (Abcam), pSmad3 and Smad3 (Cell Signaling), Smad7 (Imgenex) PPARγ (Cell Signaling). The samples were washed 5 min with PBS and incubated with streptavidin-biotin-peroxidase conjugated secondary antibody (Dako LSAB Corporation, cod K0675, Dako-Cytomation, Milano). After one wash in PBS for 10 min the sections are subject to incubation with 3,3-diaminobenzidine-tetrahydrochloride for 1-3 min. The counterstaining of nuclei was obtained by Hematoxilin Eosin. The specificity of immune reaction was effected keeping off the primary antibodies. Finally the samples were stained with hematoxylin of Mayer and observed under the Olympus BX51 Light Microscope (Olympus, Optical Co. Ltd., Tokyo, Japan).

CTGF = assay: DSS chronic colitis (Ex. 7): Western blot, CTGF; assay type: in vivo, mice; details: percentage of optical density vs control group, normalized with GAPDH; DSS 115.1%±16.88%
Description: 0.5 cm of frozen colonic samples were cut and mechanically homogenized in RIPA Buffer containing 50 mMTrisHCl pH 7.6, 150 mMNaCl, 1.5 mM MgCl2, 5 mM EDTA, 1% Triton-X and 10% Glycerol, supplemented with 100 mM Sodium Fluoride (NaF), 2 mM Sodium Orthovanadate (Na3VO4), 10 mM Sodium Pyrophosphate (NaPPi), 1 mMphenylmethanesulphone (PMSF) and a classical protease-inhibitor cocktail containing 10 μg/mL Leupeptin and Aprotinin.
30 μg of protein for each sample were separated by PAGE and electroblotted. 100% pure Nitrocellulose membranes were incubated (according with a specific protocol for each antibody) with primary antibodies directed against TGF-β1, CTGF, α-SMA, Collagen-I and GAPDH (purchased from Abcam, Cambridge, UK; 1:1000 for 2 h at RT), and IL-13 (purchased from Antibodies online; 1:1000 for 2 h at RT) diluted in 5% non fat-milk in 0.1% TBS-t. […] Optical density of target bands was determined using a computer-assisted densitometer and the ImageJ public domain software (W. S., Rasband, ImageJ, U. S. National Institutes of Health, Bethesda, MD; http://rsb.info.nih.gov/ij/, 1997-2011). Tissue levels were expressed as units of Optical Density (OD) per quantity of total proteins, normalizing with internal control GAPDH and the results were expressed as percentage of control groups.

[2] = chronic DSS colitis, GED 30 mg/kg oral daily, mean ± SEM

COC(Cc1ccc(N)cc1)C(=O)O (racemic) [Compound 34, (±)-2-methoxy-3-(4′-aminophenyl) propionic acid]
α-SMA (α-SMA): 42.81 ± 14.81 | reduction respect to the profibrotic effect of DSS (colon ratio weight/size) (C57BL/6 mice; Ex. 7, GED 30 mg/kg oral daily): 26% | ratio weight/size of the colon (C57BL/6 mice; Ex. 7, GED 30 mg/kg oral daily, DSS 44.98±6.31, control 20.11±3.91): 38.13±7.82 | Adhesions (score 0-2) (C57BL/6 mice; [2]): 0.12 ± 0.1^¥¥ | Colon length (C57BL/6 mice; [2]): 7.092 ± 0.16**/ ^ | Colon weight/body weight ratio (C57BL/6 mice; [2]): 0.27 ± 0.012**/^¥¥ | Dilation (score 0-2) (C57BL/6 mice; [2]): 1.12 ± 0.185**/^¥¥ | Stenosis (score 0-2) (C57BL/6 mice; [2]): 0.32 ± 0.114**/^¥ | Thickness (score 0-2) (C57BL/6 mice; [2]): 0.48 ± 0.108**/^¥ | Total macroscopic score (C57BL/6 mice; chronic DSS colitis, GED 30 mg/kg oral daily, mean ± SEM, DSS 3.112 ± 0.31): 2.02 ± 0.26**/^¥¥ | Colon weight (C57BL/6 mice; distal 8 cm of colon-rectum, chronic DSS colitis, GED 30 mg/kg oral daily, mean ± SEM): 0.269 ± 0.007 ^ | Collagen I-III and α-SMA (immunohistochemistry) ([1]; FIG. 13A, 13B): marked reduction; also recorded: significant reduction | TGF-β1, Smad, CTGF (immunohistochemistry) ([1]; FIG. 15 / data not shown): marked reduction; also recorded: significant reduction | CTGF expression level (Western blot) (CTGF): 55.57%±17.53%
